According to patent US10814018B2, “Isotopically labeled deoxy-glucose and derivatives thereof, compositions comprising them and uses thereof” (HADASIT MEDICAL RESEARCH SERVICE & DEVELOPMENT LTD., priority 2010, dated 2020):
One block for each compound: values may come before it.

Tests used:
[1] = rats, intravenous, cited from earlier work
[2] = T1 of glucose 13C nuclei by inversion recovery pulse sequence (Varian NMR spectrometers, 7 T and 11.8 T); type: physicochemical
Method: The effect of glucose concentration on the T1 of its carbon positions was investigated at 7 T (FIG. 1A) and at 11.8 T (FIG. 1B) using Varian NMR spectrometers (The Netherlands). [U-^13C6, ^2H7]glucose was obtained from Cambridge Isotopes Laboratories (Andover, Mass., USA). The T1 of [U-^13C6, ^2H7]glucose ^13C's was measured using the inversion recovery pulse sequence. […] The mean difference between the T1s of the two concentrations was 6.9 s (P=2*10^−6, paired t-test) at 7 T. The mean difference in T1 at 11.8 T was 4.5 s (P=4*10^−5, paired t-test). The labels C1α and C1β (FIG. 1-3) mark the two signals of the glucose carbon at position 1 in the α and β anomers. The labels Ciα and Ciβ (FIG. 1-3) mark the two signals of the glucose carbon at position i in the α and β anomers.
The effect of the magnetic field strength on the T1 of glucose carbons was investigated at 7 T (FIG. 2, solid gray columns) and at 11.8 T (FIG. 2, diagonal pattern columns). [U-^13C6, ^2H7]glucose T1 at 400 mM was measured using the inversion recovery pulse sequence in the two spectrometers. […] The mean difference in T1 between the two fields was 2 s (P=6*10^−4, paired t-test).
To increase the signal of hyperpolarized deoxy-glucose and hyperpolarized glucose, stable isotope labeling by carbon-13 in all of the carbon positions was used. The effect of direct carbon-13 to carbon-13 bonding on the individual carbon-13 T1s was investigated to study the effect of these added dipolar interactions on T1 relaxation times. To this end, two compounds were investigated (both from Cambridge Isotopes Laboratories): [U-^13C6, ^2H7]glucose (FIG. 3, solid gray columns) and [^2H7]glucose (FIG. 3, diagonal pattern columns), both at 400 mM concentration. The T1 at 11.8 T was measured using the inversion recovery pulse sequence. While both compounds are fully deuterated, in the [U-^13C6, ^2H7]glucose molecule the carbon positions are 99% occupied by ^13C nuclei. In the [^2H7]glucose molecule, only ca. 1.1% of each of the carbon positions are occupied by ^13C nuclei (due to the natural abundance distribution of ^13C). The chance for having two directly bonded ^13C nuclei in this molecule is therefore 0.01% (negligible). Therefore this measurement was indicative of the T1 of singly ^13C labeled glucose. […] Therefore, it was deducted that direct bonding of additional ^13C nuclei led to a decrease in glucose ^13C T1s, due to the additional dipolar interactions.

[3] = Hyperpolarized glucose carbon-13 images in vivo at 3 T after tail vein bolus; parameters: species or system rats
Method: Hyperpolarized glucose images were recorded at 3 T in vivo. As depicted in FIG. 5, hyperpolarized [U-^13C6, ^2H7]glucose provided a high signal on carbon-13 images recorded in vivo. Normal rats were anesthetized, and hyperpolarized [U-^13C6, ^2H7]glucose was injected through the tail vein in a bolus of 12 s total duration. Images were recorded at 8, 12, and 20 s from the onset of the bolus injection (i.e. during and after the bolus). […] Arterial hyperpolarized media flow at this time is not likely, as the signal in the kidneys is not yet visible. […] The signal from the injected hyperpolarized media is extremely high with no background signal. At 12 s (FIG. 5B), at the end of the bolus injection, signal intensity in the main vasculature and the heart is still high, with substantial intensity observed in the kidneys (see indicating arrows). At 20 s from bolus initiation (FIG. 5C), signal from the heart is the most intense signal in the image, about 40% higher than signal in the vasculature and 20% higher than signal in the kidneys. Still, signal in the kidneys is clearly observed, as well as signal in other tissues such as the liver (see indicating arrows and color change). The hyperpolarized glucose signal observed in the heart at 20 s from bolus start is more intense than signal in the vasculature and the kidneys. […] In the anaesthetized rat, the only tissue that is expected to actively take up glucose is the myocardium, because under anesthesia it is the only active muscle. […] It is noted that heart anatomy cannot be discerned from these hyperpolarized images since the imaging time (1 s) averaged several heart beats (approximately 6 beats). However, glucose uptake by the myocardium can be determined at short time frames of the order of 20 s using gradient de-phasing of intravoxel moving spins. Using this methodology, hyperpolarized glucose or deoxyglucose signal from capillaries are diminished, while the signal of intracellular hyperpolarized glucose or deoxyglucose are imaged and indicate the level of glucose uptake in the tissue.

[4] = value taken as a consideration in the simulation; cited from earlier work

Compound: O=CC[C@@H](O)[C@H](O)[C@H](O)CO [2-deoxy-D-glucose]
heart rate ([1]; 0.25, 0.5, and 1 g/Kg): no change
respiratory rate ([1]; 0.25, 0.5, and 1 g/Kg): no change
arterial blood pressure ([1]; 0.25, 0.5, and 1 g/Kg, not in a dose dependent manner): mean decrease
death ([1]; dose of 0.25, 0.5, and 1 g/Kg): No death

mean difference in T1 between the two fields (longer at 7 T) ([2]; 400 mM, 7 T vs 11.8 T, P=6*10^-4, paired t-test): 2 s
T1 of glucose, individual values per carbon position and anomer ([2]; 7 T, 400 mM): 8 to 13 s
mean difference between the T1s of the two concentrations (longer at 400 mM) ([2]; 7 T, 400 mM vs 4.03 M, P=2*10^-6, paired t-test): 6.9 s
mean difference in T1 between the two concentrations (longer at 400 mM) ([2]; 11.8 T, 400 mM vs 4.03 M, P=4*10^-5, paired t-test): 4.5 s
T1 of glucose 13Cs shorter than in [2H7]glucose (natural abundance 13C) ([2]; 11.8 T, 400 mM, P=1.4x10^-3, paired t-test): 3.3 s
Compound: [2H][13C]1(O)O[13C@]([2H])([13C]([2H])([2H])O)[13C@@]([2H])(O)[13C@]([2H])(O)[13C@@]1([2H])O (stereo partly shown) [[U-^13C6, ^2H7]glucose]
signal from the heart higher than signal in the kidneys ([3]; 20 s from bolus initiation): ~20%
signal from the heart higher than signal in the vasculature ([3]; 20 s from bolus initiation): about 40%
signal on carbon-13 images recorded in vivo ([3]; normal anesthetized rats, tail vein bolus of 12 s): high signal

Compound: CC(=O)C(=O)O [pyruvate, [1-^13C]pyruvate]
T1 of pyruvate [4]: 55 s
